The record followed here is patent US20250222123A1, “COMPOUND COMPRISING FC-BINDING UNIT, AND CONJUGATE PREPARED USING SAME” (ABTIS CO., LTD., priority 2022, published 2025).

The target in assay [1] is T1, CLDN18.2 virus-like particle (VLP) (Homo sapiens, UniProt P56856).
T1 construct: purchased CUSABIO TECHNOLOGY LLC CSB-MP005498HU (A5)
The assay is described as follows: Indirect ELISA on CLDN18.2 virus-like particle (VLP). The format is binding. The following applies: CLDN18.2 (antigen protein), VLP-coated plate. The protocol: To confirm the binding strength to an antigen, a CLDN18.2 virus-like particle (VLP) in which the claudin 18.2 protein (CLDN18.2) was expressed was prepared. At this time, CLDN18.2˜VLP is CSB-MP005498HU (A5) from CUSABIO TECHNOLOGY LLC.
After a 96-well plate was coated with the CLDN18.2 VLP for ELISA and treated with antibody-A and ADC-A, respectively, indirect ELISA was performed to measure OD values. At this time, the measured values are illustrated in FIG. 37.
The measured results were used for regression analysis in GraphPad PRISM® 9.0 software to calculate EC50 and Bmax. The antigen binding strengths of antibody-A, ADC-A, antibody-B, and ADC-B were evaluated based on the calculated values.
For orientation: An ELISA detects its analyte on a solid surface through an enzyme-linked reagent.

The test system of assay [2] is MIA PaCa-2˜CLDN18.2. The assay is described as follows: Cell-based ELISA, binding to antigen-expressing cancer cells. The method, then:
(§1) Four types of cell lines (MIA PaCa-2˜CLDN18.2, PATU8988S, parental MIA PaCa-2 (CLDN18.2-), and SNU601) were prepared. At this time, MIA PaCa-2˜CLDN18.2 and PATU8988S are CLDN18.2-positive pancreatic cancer cell lines. MIA PaCa-2 (CLDN18.2-) is a CLDN18.2-negative pancreatic cancer cell line. SNU601 is a CLDN18.2-positive gastric cancer cell line.
(§2) The prepared cell lines were cultured in DMEM containing 10% FBS and 1% penicillin/streptomycin (MIA PaCa-2˜CLDN18.2, MIA PaCa-2 (CLDN18.2-)), RPMI1640 containing 10% FBS and 1% penicillin/streptomycin (SNU601), and DMEM comprising 5% FBS, 5% horse serum, 1% penicillin/streptomycin, and […] L-glutamine (PATU8988S) in an incubator under the conditions of 37° C. and 5% CO2.
(§3) The prepared cell lines were plated on 96-well culture plates, treated with antibody-A, ADC-A, antibody-B, and ADC-B, respectively, and then cell-based ELISA was performed, and OD values were measured. At this time, the measured values are illustrated in FIGS. 38 to 41.
(§4) The measured results were used for regression analysis in GraphPad PRISM® 9.0 software to calculate EC50 and Bmax. The cell binding strengths of antibody-A, ADC-A, antibody-B, and ADC-B to each cell line were evaluated based on the calculated values.

For assay [3], the system named is SNU601. The assay is described as above. The following applies: SNU601 (CLDN18.2+). The protocol: as §1, §2, §3, §4
In assay [4] the test system is MIA PaCa-2 (CLDN18.2-). The assay is described as follows: Cell-based ELISA, CLDN18.2-negative cancer cells. The format is binding. Conditions: parental MIA PaCa-2, CLDN 18.2-negative cell line. The protocol: as §1, §2, §3, §4

pKd: −log10 of the molar value. Read-outs that look alike come from different tables or passages of the source.

As to Zolbetuximab [Antibody-B], the figures for the Bmax in assay [1], in assay [2] and in assay [3] were 2.134, 3.053 and 1.701, respectively. The Kd – broadly, the concentration at which binding is half-saturated – in assay [2] (pancreatic cancer cell line) was found to be 0.045 µg/mL; in assay [3] (gastric cancer cell line), 0.032 µg/mL. Moreover, the pKd (usually the Kd on a negative log10 scale, so that one unit is a factor of ten) in assay [2] (read-out: Kd) was 9.52; in assay [3] (read-out: Kd) it was 9.67. In assay [4], the “binding to cell line (in words)” value is reported as “did not bind”.
